Among the data in PubChem BioAssay AID330 (DTP/NCI, 2004) are T/C values, retold here.

This assay has as its system P388 leukemia ip, CD2F1 mice, survival T/C. The assay can be described thus: NCI In Vivo Anticancer Drug Screen. Data for tumor model P388 Leukemia (intraperitoneal) in CD2F1 (CDF1) mice. The note with it: endpoint: median survival time, higher = longer survival. Put shortly: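 Mice carrying the transplanted tumor received test compound or vehicle. Survival was recorded in each group, and the value is the treated-group measurement divided by that of the vehicle-treated control group.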

Setting [1] is: dose: 100.0 mg/kg/injection, schedule: Q04DX003 (ip), vehicle: saline with Tween-80.
[2] abbreviates: dose: 200.0 mg/kg/injection, schedule: Q04DX003 (ip), vehicle: saline with Tween-80.
[3] abbreviates: dose: 400.0 mg/kg/injection, schedule: Q04DX003 (ip), vehicle: saline with Tween-80.
Where [4] appears, read: dose: 50.0 mg/kg/injection, schedule: Q01DX009 (ip), vehicle: saline with Tween-80.
Where [5] appears, read: dose: 100.0 mg/kg/injection, schedule: Q01DX009 (ip), vehicle: saline with Tween-80.
Setting [6] is: dose: 200.0 mg/kg/injection, schedule: Q01DX009 (ip), vehicle: saline with Tween-80.
Where [7] appears, read: dose: 25.0 mg/kg/injection, schedule: Q01DX009 (ip), vehicle: saline with Tween-80.
The mark [8] stands for this setting: dose: 100.0 mg/kg/injection, schedule: Q04DX002 (ip), vehicle: saline with Tween-80.
The mark [9] stands for this setting: dose: 200.0 mg/kg/injection, schedule: Q04DX002 (ip), vehicle: saline with Tween-80.
The mark [10] stands for this setting: dose: 400.0 mg/kg/injection, schedule: Q04DX002 (ip), vehicle: saline with Tween-80.
Where [11] appears, read: dose: 50.0 mg/kg/injection, schedule: Q01DX009 (ip), vehicle: Klucel (hydroxypropylcellulose) (HPC).
[12] abbreviates: dose: 100.0 mg/kg/injection, schedule: Q01DX009 (ip), vehicle: Klucel (hydroxypropylcellulose) (HPC).
Where [13] appears, read: dose: 200.0 mg/kg/injection, schedule: Q01DX009 (ip), vehicle: Klucel (hydroxypropylcellulose) (HPC).
[14] abbreviates: dose: 60.0 mg/kg/injection, schedule: Q01DX005 (ip), vehicle: saline with Tween-80.
[15] abbreviates: dose: 120.0 mg/kg/injection, schedule: Q01DX005 (ip), vehicle: saline with Tween-80.
Setting [16] is: dose: 240.0 mg/kg/injection, schedule: Q01DX005 (ip), vehicle: saline with Tween-80.

SMILES strings stand for the structures. Several values for one entry are separate records, joined by “and”; a condition that tells them apart may be missing. Equal values may be shown once. Inconclusive results and toxic doses are left out. Bridge positions count the residues as written; N and C are the ends. Square brackets hold non-standard residues; d marks the D form. Peptide text beside a SMILES is read from it. * marks the point of attachment. Cbz = O=C(OCc1ccccc1)*; Ava = NCCCCC(=O)O

On to `CCCCc1cc(-c2ccc(C)cc2)c(CCCC)c2c1-c1cccc3cccc-2c13`, for which the T/C runs as follows: under setting [1], 98 % of control; under setting [2], 91 % of control; under setting [3], 92 % of control.

For the molecule `N#CSCc1ccccc1Cl`, the T/C reads like this: (dose: 2.5 mg/kg/injection, schedule: Q01DX009 (ip), vehicle: saline with Tween-80) 104 % of control; (dose: 5.0 mg/kg/injection, schedule: Q01DX009 (ip), vehicle: saline with Tween-80) 104 % of control; (dose: 10.0 mg/kg/injection, schedule: Q01DX009 (ip), vehicle: saline with Tween-80) 90 % of control.

In the case of `CC12CCC(C3(C)CCC4CC3(O)C4)C(CO)C1CCC2=O` (stereo not drawn), the T/C was 96 % of control (dose: 7.5 mg/kg/injection, schedule: Q01DX005 (ip), vehicle: Klucel (hydroxypropylcellulose) (HPC)); 103 % of control (dose: 15.0 mg/kg/injection, schedule: Q01DX005 (ip), vehicle: Klucel (hydroxypropylcellulose) (HPC)); 98 % of control (dose: 30.0 mg/kg/injection, schedule: Q01DX005 (ip), vehicle: Klucel (hydroxypropylcellulose) (HPC)).

As for `C=C1C(O)C2(O)OCC34C(CC5C(C)=CC(=O)C(O)C5(C)C23)OC(=O)C(OC(=O)C/C=C(\C)CCCCC)C14` (stereo not drawn), the T/C is 161 % of control (dose: 2.0 mg/kg/injection, schedule: Q01DX005 (ip), vehicle: saline + alcohol); 168 % of control and 169 % of control (dose: 4.0 mg/kg/injection, schedule: Q01DX005 (ip), vehicle: saline + alcohol).

On to `O=C1NC(=O)C2(CCCc3ccc([N+](=O)[O-])cc32)N1` (stereo not drawn), for which the T/C is 99 % of control under setting [4], 99 % of control under setting [5] and 97 % of control under setting [6].

On to `COc1ccc(OC)c2c(=O)cc(C)[nH]c12`, for which the T/C reads like this: (dose: 16.5 mg/kg/injection, schedule: Q01DX009 (ip), vehicle: saline with Tween-80) 107 % of control and 112 % of control; under setting [7], 107 % of control and 111 % of control and 121 % of control; (dose: 37.5 mg/kg/injection, schedule: Q01DX009 (ip), vehicle: saline with Tween-80) 113 % of control and 124 % of control; under setting [4], 114 % of control; under setting [5], 107 % of control; under setting [6], 107 % of control.

Take `O=C(N/N=C/c1cc(Cl)cc(Cl)c1[O-])c1ccccc1.O=C(N/N=C/c1cc(Cl)cc(Cl)c1[O-])c1ccccc1.[Fe+2]`: the T/C by setting is: under setting [8], 98 % of control; under setting [9], 103 % of control; under setting [10], 100 % of control.

As to `O=C(Nc1ccccc1)C1C(=O)C(=O)N(c2ccccc2)C1=O` (stereo not drawn), the T/C under setting [11] was 107 % of control, the T/C under setting [12] was 101 % of control and the T/C under setting [13] was 99 % of control.

Take `CCOP(=O)(O)C1CCCC(C)[N-]1.CCOP(=O)(O)C1CCCC(C)[N-]1.CCOP(=O)(O)C1CCCC(C)[N-]1.[Ti+3]` (stereo not drawn): the T/C by setting is: (dose: 50.0 mg/kg/injection, schedule: Q01DX001 (ip), vehicle: suspension in saline) 94 % of control; (dose: 100.0 mg/kg/injection, schedule: Q01DX001 (ip), vehicle: suspension in saline) 99 % of control; (dose: 200.0 mg/kg/injection, schedule: Q01DX001 (ip), vehicle: suspension in saline) 88 % of control.

Consider `COc1ccccc1OCC(O)CNc1ccc(Cl)cc1C(=O)c1ccccc1` (stereo not drawn), for which the T/C is, setting by setting: under setting [14], 103 % of control; under setting [15], 105 % of control; under setting [16], 94 % of control.

Consider `CC1NC(=O)C(NC(=O)OCc2ccccc2)COC(=O)C(C(C)C)NC(=O)CCCCNC1=O` (stereo not drawn) (Cbz-SA[Ava]V; ester 1-C; configuration not given here), for which the T/C under setting [8] is 100 % of control, the T/C under setting [9] is 104 % of control and the T/C under setting [10] is 104 % of control.

As for `NCP(=O)(CN)CN`, the T/C under setting [11] is 99 % of control, the T/C under setting [12] was 100 % of control and the T/C under setting [13] was 100 % of control.

For the molecule `Clc1ccccc1C(=Nc1ccccc1)C(=Nc1ccccc1)c1ccccc1Cl`, the T/C (dose: 100.0 mg/kg/injection, schedule: Q04DX002 (ip), vehicle: Klucel (hydroxypropylcellulose) (HPC)) is 99 % of control; the T/C (dose: 200.0 mg/kg/injection, schedule: Q04DX002 (ip), vehicle: Klucel (hydroxypropylcellulose) (HPC)) is 102 % of control; the T/C (dose: 400.0 mg/kg/injection, schedule: Q04DX002 (ip), vehicle: Klucel (hydroxypropylcellulose) (HPC)) was 96 % of control.

As to `C=C/[Se](=C(/C#N)C(=O)c1ccccc1)c1ccccc1` (stereo not drawn), the T/C reads like this: (dose: 6.25 mg/kg/injection, schedule: Q01DX009 (ip), vehicle: saline) 99 % of control; (dose: 12.5 mg/kg/injection, schedule: Q01DX009 (ip), vehicle: saline) 99 % of control; (dose: 25.0 mg/kg/injection, schedule: Q01DX009 (ip), vehicle: saline) 89 % of control.

Take `CN1/C(=C2\C=CC=C\C2=N/S(=O)(=O)c2ccc(Cl)cc2)Sc2ccccc21`: the T/C is, setting by setting: (dose: 100.0 mg/kg/injection, schedule: Q04DX003 (ip), vehicle: saline) 103 % of control; (dose: 200.0 mg/kg/injection, schedule: Q04DX003 (ip), vehicle: saline) 104 % of control; (dose: 400.0 mg/kg/injection, schedule: Q04DX003 (ip), vehicle: saline) 99 % of control.

With `NNC(=O)CCCCCCCCCCCCCCCO`, the T/C reads like this: (dose: 12.5 mg/kg/injection, schedule: Q01DX009 (ip), vehicle: saline with Tween-80) 97 % of control; under setting [7], 88 % of control; under setting [4], 88 % of control.

As to `COc1ccc(CC(N)C(=O)OCc2ccccc2)cc1N(CCCl)CCCl` (stereo not drawn), the T/C was 97 % of control (dose: 1.56 mg/kg/injection, schedule: Q01DX009 (ip), vehicle: suspension in saline); 95 % of control (dose: 3.12 mg/kg/injection, schedule: Q01DX009 (ip), vehicle: suspension in saline); 100 % of control (dose: 6.25 mg/kg/injection, schedule: Q01DX009 (ip), vehicle: suspension in saline).

Take `CC(=O)Nc1ccc(NC(C)=O)c2c1C(=O)c1ccccc1C2=O`: the T/C was 100 % of control under setting [1], 100 % of control under setting [2] and 100 % of control under setting [3].

Take `O=C(CSC1CCc2ccccc21)NNC(=O)Nc1ccc(Cl)cc1` (stereo not drawn): the T/C is, setting by setting: (dose: 50.0 mg/kg/injection, schedule: Q01DX005 (ip), vehicle: Klucel (hydroxypropylcellulose) (HPC)) 90 % of control; (dose: 100.0 mg/kg/injection, schedule: Q01DX005 (ip), vehicle: Klucel (hydroxypropylcellulose) (HPC)) 95 % of control; (dose: 200.0 mg/kg/injection, schedule: Q01DX005 (ip), vehicle: Klucel (hydroxypropylcellulose) (HPC)) 89 % of control.

For the molecule `O=C(OCC1OC(n2ccc(=S)[nH]c2=O)C(OC(=O)c2ccccc2)C1OC(=O)c1ccccc1)c1ccccc1` (stereo not drawn), the T/C was 102 % of control (dose: 12.5 mg/kg/injection, schedule: Q01DX005 (ip), vehicle: saline with Tween-80); 91 % of control (dose: 25.0 mg/kg/injection, schedule: Q01DX005 (ip), vehicle: saline with Tween-80); 91 % of control and 95 % of control (dose: 50.0 mg/kg/injection, schedule: Q01DX005 (ip), vehicle: saline with Tween-80); 87 % of control (dose: 200.0 mg/kg/injection, schedule: Q01DX005 (ip), vehicle: saline with Tween-80).

In the case of `CN(C)CCC(c1ccccc1)C(CO)c1ccccc1` (stereo not drawn), the T/C is, setting by setting: (dose: 100.0 mg/kg/injection, schedule: Q01DX001 (ip), vehicle: Klucel (hydroxypropylcellulose) (HPC)) 116 % of control; (dose: 200.0 mg/kg/injection, schedule: Q01DX001 (ip), vehicle: Klucel (hydroxypropylcellulose) (HPC)) 102 % of control.

Regarding `O=C(O)C(c1ccccc1)C1CCCC1` (stereo not drawn), the T/C (dose: 50.0 mg/kg/injection, schedule: Q04DX003 (ip), vehicle: saline with Tween-80) was 110 % of control; the T/C under setting [1] was 110 % of control; the T/C under setting [2] is 105 % of control.

As to `CCCCCC(CN(C)C)C(/C=C/c1ccccc1Cl)=N\O` (stereo not drawn), the T/C is, setting by setting: (dose: 50.0 mg/kg/injection, schedule: Q01DX009 (ip), vehicle: saline) 106 % of control; (dose: 100.0 mg/kg/injection, schedule: Q01DX009 (ip), vehicle: saline) 112 % of control.

`Oc1cc2c(cc1C(c1ccc3c(c1)OCO3)n1ccnc1)OCO2` (stereo not drawn): the T/C was 108 % of control under setting [14], 98 % of control under setting [15] and 94 % of control under setting [16].
